Laboratory results published in US20110244589A1, “IN-VIVO PLATELET FUNCTION TEST BY ONLINE BLEEDING VOLUME MEASUREMENT” (priority 2009, published 2011).

What was measured:
platelet function [1] = details: background statement on the bleeding time test; cited from earlier work
platelet function [2] = experiment: bleeding volume test (in-vivo, blotter paper blotch area); design: species or system patient; details: after taking an aspirin, versus before
From the text: Bleeding volume is the volume of blood lost during a bleeding time test. Bleeding time is a total length of time between the moment a standardized tiny superficial incision is made in the skin of a patient and the moment the bleeding stops. […] The blotter paper 14 absorbs the blood 16 oozing out of the incision 18 until the patient 10 stops bleeding. One or more blotter papers 14 may be necessary to absorb all of the blood 16.
The in-vivo bleeding volume test results of the patient 10 is indicative of a patient's excessive bleeding tendencies, platelet function and platelet number.
Referring now to FIG. 1, a medical professional conducts the following procedure on the patient 10 being treated. The conditions for consistent blood flow and clotting may be set up. For example, the incision area may be wiped with alcohol which is allowed to completely dry. The patient may either sit in a chair with the forearm in a comfortable stable position or reclining with the forearm at heart level. A blood pressure (e.g., sphygmomanometer) cuff 26 may be placed on an upper arm 22 of the patient 10. By way of example and not limitation, the blood pressure cuff 26 may be inflated to about 40 mm Hg to regulate a constant venous blood pressure in the forearm 24 of the patient 10. […] A round disc blotter paper 14 typically used for determining bleeding time may be placed at the edge of the incision 18. […]

platelet function [3] = experiment: bleeding time test (in-vivo); design: species or system patient; details: after taking an aspirin, versus before
From the text: The bleeding time of a patient, which is the length of time blood continues to flow after the skin of a patient has been punctured or cut, has been used to identify patients having abnormal bleeding tendencies or platelet dysfunction or low number of platelets. The bleeding time test is an in-vivo test which involves making a standardized incision on the skin then applying a round disc of standardized blotter paper to the enlarging blood droplet adjacent to the incision for precisely thirty (30) seconds, then rotating the blotter paper and applying a fresh edge of the disc to the bleeding incision, and repeating this process until bleeding has stopped. The sequential blotches of blood on the blotter paper should not intersect. The total number of dried blotches of blood on the blotter paper divided by the number two (2) gives the duration of bleeding in minutes. […] The conditions for consistent blood flow and clotting may be set up. For example, the incision area may be wiped with alcohol which is allowed to completely dry. […] To calculate the total bleeding time, the number of blotches 28 may be counted and divided by two to arrive at the bleeding time to the nearest thirty (30) second interval. Alternatively, the bleeding time may be calculated with a stopwatch.

CC(=O)Oc1ccccc1C(=O)O [aspirin]
difference in mean bleeding time of persons who take aspirin and those that take no medication (platelet function [1]): ≤ 2 standard deviations | increases bleeding volume (platelet function [2]): 400% | increase the bleeding time (platelet function [3]): 72%
